Data on 27 molecules can be found in ChEMBL document CHEMBL5523693, “Exploration of the P1 residue in 3CL protease inhibitors leading to the discovery of a 2-tetrahydrofuran P1 replacement” (Bioorg Med Chem, 2024).

For data set [1], the target named is Replicase polyprotein 1ab (Severe acute respiratory syndrome coronavirus 2, UniProt P0DTD1). As to the kind of experiment: Inhibition of SARS-CoV-2 3CL protease by FRET assay.
The target in data set [2] is Replicase polyprotein 1ab (Severe acute respiratory syndrome coronavirus 2) (UniProt P0DTD1). As to the kind of experiment: Binding affinity to SARS-CoV-2 3CL protease assessed as biphasic dissociation rate by measuring half life by jump dilution assay.
Data set [3] shares this target. As to the kind of experiment: Binding affinity to SARS-CoV-2 3CL protease assessed as monophasic dissociation rate by measuring half life by jump dilution assay.
A further data set relates to SARS-CoV-2. The experiment in a line: microbe, parasite or virus in culture. Conditions: Severe acute respiratory syndrome coronavirus 2, Vero, read-out: pEC50 (converted).
Data set [4] in a line: Cytotoxicity against human MRC5 cells infected with […] inhibition of cell growth. In kind it is toxicity, cell-based.
A further data set can be described thus: cells. As to conditions: Betacoronavirus 1, MRC5, read-out: pEC50 (converted).
Data set [5] can be described thus: Permeability of compound in MDCK cells. As to conditions: dog, read-out: permeability. The data set is classed as ADME, cell-based, Canis lupus familiaris.

Where a SMILES comes first, the peptide text is derived from it. [ ]: non-standard residue; d: D form. The star is where a group is joined. Phe(4-F) = N[C@@H](Cc1ccc(F)cc1)C(=O)O; Cbz = O=C(OCc1ccccc1)*

Description for SARS-CoV-2: Antiviral activity against SARS-CoV-2 infected in african green monkey Vero cells assessed as virus-induced cell death
Description for cells: Antiviral activity against SARS-CoV-2 OC43 infected in human MRC5 cells assessed as inhibition of bacterial growth

In general, IC50 refers to the concentration needed to halve the response being measured. The low end stands for higher potency, the high end for lower potency. In turn, `CC(C)C[C@H](NC(=O)[C@H](Cc1ccc(F)cc1)NC(=O)OCc1ccccc1)C(=O)N[C@@H](/C=C1\CCOC1=O)C[C@@H]1CCCO1` gave an IC50 in data set [1] above 1000 nM.

`CC(C)C[C@H](NC(=O)[C@H](Cc1ccc(F)cc1)NC(=O)OCc1ccccc1)C(=O)N[C@H](/C=C1\CCOC1=O)C[C@@H]1CCNC1=O` showed a half-inhibitory concentration (IC50) in data set [1] of 1.58 nM. Besides, the T1/2 in data set [2] is 7.8 h.

One may read the Ki as a measure of affinity in units of concentration, obtained from inhibition or displacement. In data set [1], `CC(C)C[C@H](NC(=O)[C@H](Cc1ccc(F)cc1)NC(=O)OCc1ccccc1)C(=O)N[C@@H](C[C@@H]1CCNC1=O)C(=O)C(=O)NC(C)C` showed an IC50 of 5.01 nM and a Ki of 5.01 nM. The T1/2 in data set [3] came to 18 min.

Molecule `CC(C)C[C@H](NC(=O)[C@H](Cc1ccc(F)cc1)NC(=O)OCc1ccccc1)C(=O)N[C@@H](/C=C1\CCOC1=O)C[C@H]1CCCO1` had a 50% inhibitory concentration (IC50) in data set [1] above 1000 nM.

On to `CC(C)C[C@H](NC(=O)[C@H](Cc1ccc(F)cc1)NC(=O)OCc1ccccc1)C(=O)N[C@H](/C=C1\CCOC1=O)C[C@@H]1CCCO1`, for which the IC50 in data set [1] is 39.8 nM. In addition, the T1/2 in data set [2] amounted to 11 h. For the same molecule, in the data set on SARS-CoV-2, the EC50 is 15800 nM.

Molecule `CC(C)C[C@H](NC(=O)[C@H](Cc1ccc(F)cc1)NC(=O)OCc1ccccc1)C(=O)N[C@H](/C=C1\CCOC1=O)C[C@H]1CCCO1` had a half-maximal inhibitory concentration (IC50) in data set [1] of 126 nM. Further, in data set [3], the T1/2 amounted to 12 min. In the data set with SARS-CoV-2, the EC50 was 15800 nM.

One may read the CC50 as the concentration at which the toxic effect on the cells reaches its halfway point. Read a low CC50 as greater toxicity to the cells. Consider `CSCC[C@@H](C=O)NC(=O)[C@H](CC(C)C)NC(=O)[C@H](Cc1ccc(F)cc1)NC(=O)OCc1ccccc1` (Cbz-[Phe(4-F)]-Leu-Met-aldehyde), for which the IC50 in data set [1] was 6.31 nM. In data set [3], the T1/2 is below 12 min. The same molecule gave a CC50 in data set [4] of 3.98 µM. In addition, the EC50 in the data set “cells” is 1000 nM; with SARS-CoV-2 it was 1260 nM.

As to `CC(C)C[C@H](NC(=O)[C@H](Cc1ccc(F)cc1)NC(=O)OCc1ccccc1)C(=O)NC(C=O)CCF` (mixture of isomers), in data set [1], 631 nM corresponded to half-maximal inhibition (IC50). Besides, the T1/2 in data set [3] was below 12 min. Also, it took 2 µM to reach half-maximal cytotoxicity in data set [4] (CC50). In addition, the EC50 in “cells” is above 50100 nM; with SARS-CoV-2, 1000 nM.

In the case of `CC(C)C[C@H](NC(=O)[C@H](Cc1ccc(F)cc1)NC(=O)OCc1ccccc1)C(=O)NC(C=O)CC(F)F` (mixture of isomers), the IC50 in data set [1] was 1000 nM. Further, in data set [3], the T1/2 was below 12 min. Besides, the CC50 in data set [4] is 1.58 µM. Besides, the EC50 is above 1580 nM in “cells” and 1000 nM in the data set on SARS-CoV-2.

Turning to `CC(C)C[C@H](NC(=O)[C@H](Cc1ccc(F)cc1)NC(=O)OCc1ccccc1)C(=O)NC(/C=C1\CCOC1=O)CC1CCCO1` (mixture of isomers), in data set [1], it took 158 nM to reach half-maximal inhibition (IC50). In addition, the T1/2 in data set [3] is 18 min.

`CC(C)C[C@H](NC(=O)[C@H](Cc1ccc(F)cc1)NC(=O)OCc1ccccc1)C(=O)NC(C=O)Cc1ccccn1` (mixture of isomers) gave a 50% inhibitory concentration (IC50) in data set [1] of 12.6 nM. Further, in data set [3], the T1/2 worked out at 18 min. For the same molecule, the CC50 in data set [4] is 10 µM. Also, the EC50 in “cells” is 1580 nM.

Regarding `CC(C)C[C@H](NC(=O)[C@H](Cc1ccc(F)cc1)NC(=O)OCc1ccccc1)C(=O)NC(CC1CCCO1)C(=O)C(=O)NC(C)C` (mixture of isomers), the midpoint of inhibition in data set [1], the IC50, lay at 200 nM. Further, in data set [3], the T1/2 is 12 min.

Take `CC(C)C[C@H](NC(=O)[C@H](Cc1ccc(F)cc1)NC(=O)OCc1ccccc1)C(=O)NC(C=O)CC(F)(F)F` (mixture of isomers): in data set [1], the half-inhibitory concentration (IC50) is above 1000 nM. The molecule also showed a CC50 in data set [4] of 1.26 µM. Besides, the EC50 in “cells” was above 1260 nM; with SARS-CoV-2 it was 631 nM.

`CC(C)C[C@H](NC(=O)[C@H](Cc1ccc(F)cc1)NC(=O)OCc1ccccc1)C(=O)NC(C=O)Cc1cccnc1` (mixture of isomers) gave a concentration for half-maximal inhibition (IC50) in data set [1] above 1000 nM. Moreover, in data set [4], the half-maximal cytotoxic concentration (CC50) is 10 µM. The EC50 in the data set “cells” is above 10000 nM; with SARS-CoV-2, 2000 nM.

In turn, `CC(C)C[C@H](NC(=O)[C@H](Cc1ccc(F)cc1)NC(=O)OCc1ccccc1)C(=O)NC(C=O)Cc1ccc(F)cc1` (mixture of isomers) showed an IC50 in data set [1] of 794 nM. Moreover, in data set [3], the T1/2 was below 12 min. The CC50 in data set [4] is 1.26 µM. Moreover, the EC50 is above 1260 nM in the data set “cells” and 2000 nM in the data set with SARS-CoV-2.

In data set [1], `CC(C)C[C@H](NC(=O)[C@H](Cc1ccc(F)cc1)NC(=O)OCc1ccccc1)C(=O)NC(C=O)Cc1cncs1` (mixture of isomers) showed an IC50 above 1000 nM. In data set [4], this molecule had a 50% cytotoxic concentration (CC50) of 2 µM. In “cells”, the EC50 is above 50100 nM.

Consider `CC(C)C[C@H](NC(=O)[C@H](Cc1ccc(F)cc1)NC(=O)OCc1ccccc1)C(=O)NC(C=O)Cc1ccncc1` (mixture of isomers), for which, in data set [1], the concentration for half-maximal inhibition (IC50) is above 1000 nM. The same molecule showed a CC50 in data set [4] of 5.01 µM. Also, the EC50 was above 5010 nM in “cells” and 631 nM in the data set with SARS-CoV-2.

On to `CC(C)C[C@H](NC(=O)[C@H](Cc1ccc(F)cc1)NC(=O)OCc1ccccc1)C(=O)NC(C=O)Cc1ccccc1F` (mixture of isomers), for which inhibition in data set [1] was half-maximal at 3.16 nM (IC50). The T1/2 in data set [2] is 6.9 h. For the same molecule, the Papp in data set [5] was determined as 5.27 ×10⁻⁶ cm/s. Besides, the CC50 in data set [4] is 1.26 µM. In addition, the values for the EC50 in “cells” and in the data set with SARS-CoV-2 were 398 nM and 1580 nM, respectively.

In turn, `CC(C)C[C@H](NC(=O)[C@H](Cc1ccc(F)cc1)NC(=O)OCc1ccccc1)C(=O)NC(C=O)Cc1cccc(F)c1` (mixture of isomers) gave a concentration for half-maximal inhibition (IC50) in data set [1] of 631 nM. Besides, the T1/2 in data set [3] was below 12 min. In data set [4], this molecule gave a CC50 of 0.794 µM. Moreover, the EC50 in “cells” is 794 nM; with SARS-CoV-2, 2510 nM.

Regarding `CC(C)C[C@H](NC(=O)[C@H](Cc1ccc(F)cc1)NC(=O)OCc1ccccc1)C(=O)NC(C=O)Cc1ccco1` (mixture of isomers), half-maximal inhibition in data set [1] (IC50) required 126 nM. The T1/2 in data set [3] is below 12 min. Moreover, in the data set with SARS-CoV-2, the EC50 is 5010 nM.

`CC(C)C[C@H](NC(=O)[C@H](Cc1ccc(F)cc1)NC(=O)OCc1ccccc1)C(=O)NC(C=O)Cc1c[nH]cn1` (mixture of isomers): half-maximal inhibition in data set [1] (IC50) required 15.8 nM. Also, the T1/2 in data set [3] was below 12 min. For the same molecule, in data set [4], the CC50 was above 50.1 µM. Besides, the EC50 in “cells” is 25100 nM; in the data set with SARS-CoV-2 it was 3980 nM.

In data set [1], `CC(C)C[C@H](NC(=O)[C@H](Cc1ccc(F)cc1)NC(=O)OCc1ccccc1)C(=O)NC(C=O)C[C@@H]1CCNC1=O` (mixture of isomers) gave an IC50 of 0.398 nM. In addition, in data set [2], the T1/2 stood at 14 h. Further, the Papp in data set [5] came out at 1.62 ×10⁻⁶ cm/s. The molecule further had a CC50 in data set [4] above 50.1 µM. In addition, the EC50 in “cells” was 3160 nM; in the data set with SARS-CoV-2, 1000 nM.

Regarding `CC(C)C[C@H](NC(=O)[C@H](Cc1ccc(F)cc1)NC(=O)OCc1ccccc1)C(=O)N[C@H](C=O)CC[S+](C)[O-]` (mixture of isomers), the IC50 in data set [1] is 7.94 nM. Further, the T1/2 in data set [2] worked out at 11 h. The molecule also had a half-maximal cytotoxic concentration (CC50) in data set [4] above 50.1 µM. In addition, the EC50 in the data set “cells” is above 50100 nM; in the data set with SARS-CoV-2 it was 7940 nM.

Turning to `CC(C)C[C@H](NC(=O)[C@H](Cc1ccc(F)cc1)NC(=O)OCc1ccccc1)C(=O)NC(C=O)CC1CCCC1` (mixture of isomers), 79.4 nM corresponded to half-maximal inhibition in data set [1] (IC50). Moreover, the T1/2 in data set [3] is below 12 min. The half-maximal cytotoxic concentration (CC50) in data set [4] was 10 µM. Also, in the data set “cells”, the EC50 is 1000 nM.

In data set [1], `CC(C)C[C@H](NC(=O)[C@H](Cc1ccc(F)cc1)NC(=O)OCc1ccccc1)C(=O)NC(C=O)CC1CCCCO1` (mixture of isomers) had a half-inhibitory concentration (IC50) of 39.8 nM. The T1/2 in data set [3] was determined as 18 min. For the same molecule, the cytotoxic concentration (CC50) in data set [4] was above 50.1 µM. Also, in the data set on SARS-CoV-2, the EC50 was 2000 nM.

As for `CC(C)C[C@H](NC(=O)[C@H](Cc1ccc(F)cc1)NC(=O)OCc1ccccc1)C(=O)NC(C=O)CC1CCCO1` (mixture of isomers), in data set [1], the half-inhibitory concentration (IC50) was 1.26 nM. For the same molecule, in data set [2], the T1/2 was 11 h. Also, the Papp in data set [5] is 9.56 ×10⁻⁶ cm/s. In data set [4], this molecule gave a half-maximal cytotoxic concentration (CC50) of 10 µM. Moreover, the EC50 was 316 nM in the data set “cells” and 2510 nM in the data set with SARS-CoV-2.

In the case of `COCCC(C=O)NC(=O)[C@H](CC(C)C)NC(=O)[C@H](Cc1ccc(F)cc1)NC(=O)OCc1ccccc1` (mixture of isomers), the IC50 in data set [1] was 31.6 nM. Also, in data set [3], the T1/2 was below 12 min. The CC50 in data set [4] is 10 µM. Further, the EC50 in “cells” is 1260 nM; with SARS-CoV-2, 1580 nM.
